These results are taken from patent publication EP1781294B1, “COMPOSITION FOR IMPROVED BIOAVAILABILITY AND ENHANCED BRAIN DELIVERY OF 5,5-DIPHENYL BARBITURIC ACID” (priority 2004, dated 2006).

Series [1] in a line: Brain concentration of DPB after oral DPB or NaDPB and intravenous NaDPB. In kind it is in vivo, Sprague-Dawley rats. The note with it: 150 mg/kg. As to the method:
(§1) We examined the delivery of DPB to the vascular compartment by administrating directly DPB and compared it with the sodium salt of DPB. This study compared the pharmacokinetics of DPB after oral administration of DPB (150 mg/kg) and sodium salt of DPB (150 mg/kg) in rats. Fifty-four rats were administered DPB and sodium salt of DPB by a single oral gavage (n=54). Blood samples were obtained (approximately 0.5 mL each) were collected following each treatment from animal via the jugular vein. Blood samplings from groups of 3 rats/sex/time point were collected at various times after dosing, in order to provide the complete time-points of pre-dose, 0, 0.5, 1, 2, 3, 4, 6, 12, 18, 24, 36 and 48 hours after dosing. Each blood sample was collected into a tube containing lithium heparin and the samples were spun in a refrigerated centrifuge. The resultant plasma was stored at -80°C prior to analysis. DPB was quantified in plasma using HPLC (LLOQ=0.25 µg/mL).
In this study, we measured the brain concentration of DPB. Brains were collected as soon as possible after euthanasia from each rat. They were stored in a freezer at -80°C prior to determination of DPB brain tissue concentrations. Table 6 summarizes the brain concentrations of DPB after oral administration of DPB and sodium salt of DPB in Sprague-Dawley rats.

The conditions of series [2]: aqueous solution at pH 7; cited from earlier work.
The nature of series [3]: Pharmacokinetics of DPB after oral DPB or NaDPB and intravenous NaDPB. In kind it is in vivo, Sprague-Dawley rats. The note with it: 150 mg/kg; for AUC at 24 h: rat, in vivo, analyte DPB, read-out: AU0-24; for AUC0-t for DPB greater than after oral administration of DPB / Cmax for DPB greater than after oral administration of DPB: versus oral DPB. How it is done:
(§2) In accordance with the present invention, pharmacokinetic parameters were calculated using standard non-compartmental methods, as implemented in WinNonlin™ 4.0.1. […] The mean, SD and CV (%) were used to calculate the AUC0-t (µg.h/mL), Cmax (µg/ml) (the maximum observed concentration), Tmax (hours) (the time to reach that peak concentration) and Kel (the elimination rate constant) for each animal and each analyte.
(§3) AUC0-t was calculated using the linear trapezoidal rule, which employs an approximate integration formula. The area of each trapezoid was calculated, and the sum of all the areas of all the trapezoids yielded an estimate of the true area under the curve. (See, Gibaldi et al. Pharmacokinetics. 2nd Ed. Marcel Dekker, Inc., 1982; Yeh et al., A comparison of numerical integrating algorithms by trapezoidal, lagrange, and spline approximations. J. Pharmacokinet Biopharm. 6: 79 (1978), the disclosure of which is herein incorporated by reference.) Cmax and Tmax were then determined for each concentration vs. time profile. Elimination rate constant (Kel) was calculated using regression analyses on the natural log (In) of plasma concentration values (y) versus time (x).
as §1
We calculated AUC0-t for DPB at various times (24, 36 and 48 hours) after oral administrations of DPB and sodium salt of DPB. Table 5: AUCs at various times (24,36 and 48 hours) after Oral Administration of DPB and NaDPB in Beagle Dogs (75 mg/kg, n=28)

Series [4] has as its system maximal electroshock seizure (MES). The note with it: cited from earlier work.
The nature of series [5]: Pharmacokinetics of MMMDPB and DPB after oral MMMDPB or NaMMMDPB and intravenous NaMMMDPB. In kind it is in vivo, Beagle dogs. As to the method:
as §2, §3
Blood samples were obtained pre-dose and 0.25, 0.5, 1, 2, 3, 4, 6, 9, 12, 15, 18, and 24 hours after dosing. Venous blood (~1 mL) were drawn and collected in lithium heparin (anticoagulant). Blood samples were spun in a refrigerated centrifuge and plasma were stored at -80°C prior to analysis. […] Calibration curves were obtained using a weighted (1/C^2) least squares linear regression analysis of peak area ratio (analyte/internal standard) versus the nominal concentration of the calibration standards. Concentrations were obtained by interpolation from the run defined calibration curve. Regressions and figures were generated by PE Sciex Analyst Version 1.2 software.
Plasma samples were thawed and subjected to solid phase extraction with 2 mL acetonitrile prior to HPLC method with Tandem Mass Spectrometry Detection. Chromatographic conditions were performed as followed: […]

Series [6] can be described thus: Pharmacokinetics of DPB after oral DPB or NaDPB and intravenous NaDPB. The note with it: 75 mg/kg, versus oral DPB free acid. In kind it is in vivo, Beagle dogs. As to the method: as §2, §3
We examined the delivery of DPB to the vascular compartment by administrating directly DPB and compared it with the sodium salt of DPB in dogs. […] DPB was quantified in plasma using HPLC (LLOQ=0.25 µg/mL). […]

The mark [7] stands for this setting: dog, in vivo, iv, 15 mg/kg, IV infusion, analyte DPB.

Like-named read-outs stand apart in the source and are kept apart here.

Consider `O=C1NC(=O)C(c2ccccc2)(c2ccccc2)C(=O)N1` [DPB, 5,5-diphenyl barbituric acid], for which the “Mean Brain Concentrations of DPB” value is given as 7.04 µg/g in series [1] (female, 24 hr); 6.84 µg/g in series [1] (female, 36 hr); 5.24 µg/g in series [1] (female, 48 hr); 3.09 µg/g in series [1] (male, 24 hr); 3.36 µg/g in series [1] (male, 36 hr); “BQL” in series [1] (male, 48 hr). Moreover, the “Water solubility, less soluble as compared to phenobarbital” value in series [2] is listed as 1/100. Further, the AUC at 24 h in series [3] (po, Oral, female) worked out at 1210 µg·h/mL; in series [3] (po, Oral, male), 623 µg·h/mL. The protection in series [4] (brain concentrations in excess of 10 µg/ml) is no less than 50%; in series [4] (brain concentrations of DPB less than 1 µg/ml), no more than 20%.
The Tmax is the time at which the peak concentration occurs. One may read the Cmax as the peak of the concentration-time curve. `COCN1C(=O)NC(=O)C(c2ccccc2)(c2ccccc2)C1=O` [MMMDPB, monomethoxymethyl-5,5-diphenyl barbituric acid]: the AUC(0-t) turned out to be 193.18 µg·h/mL in series [5] (Oral, 30 mg/kg, analyte DPB) and 193 µg·h/mL in series [5] (dog, in vivo, Oral, 30 mg/kg, analyte DPB, read-out: AUC0-t). In series [5] (dog, in vivo, Oral, 30 mg/kg, analyte DPB), the Tmax was found to be 9.39 h. The molecule further had a Cmax in series [5] (dog, in vivo, Oral, 30 mg/kg, analyte DPB, plasma, n=8) of 13.9 µg/mL.
`O=C1NC(=O)C(c2ccccc2)(c2ccccc2)C(=O)N1.[Na]` [NaDPB, sodium 5,5-diphenyl barbiturate]: the “AUC0-t for DPB greater than after oral administration of DPB” value in series [6] is ~ 4 fold; in series [3] (Oral, female), ~ 2 fold; in series [3] (Oral, male), ~ 4.5 fold. Moreover, the “Cmax for DPB greater than after oral administration of DPB” value in series [6] is ~ 3 fold; in series [3] (Oral, female), ~ 1.5 fold; in series [3] (Oral, male), ~ 2.5 fold. For the same molecule, the AUC at 24 h in series [3] (iv, IV infusion, female) was 3400 µg·h/mL; in series [3] (iv, IV infusion, male) it was 3160 µg·h/mL; in series [3] (po, Oral, female) it was 1990 µg·h/mL; in series [3] (po, Oral, male) it was 1710 µg·h/mL.
Turning to `COCN1C(=O)NC(=O)C(c2ccccc2)(c2ccccc2)C1=O` [NaMMMDPB, sodium monomethoxymethyl-5,5-diphenyt barbiturate], the AUC(0-t) in series [5] (Oral, 30 mg/kg, analyte DPB) worked out at 135.10 µg·h/mL; in series [5] (dog, in vivo, iv, 15 mg/kg, IV infusion, 15 mg/kg, analyte DPB, read-out: AUC0-t) it was 59.4 µg·h/mL; in series [5] (dog, in vivo, po, 30 mg/kg, Oral, 30 mg/kg, analyte DPB, read-out: AUC0-t), 135 µg·h/mL; in series [5] (dog, in vivo, po, 30 mg/kg, Oral, 30 mg/kg, analyte MMMDPB, read-out: AUC0-t), 29.4 µg·h/mL. The peak concentration (Cmax) in series [5] (setting [7]) amounted to 8.6 µg/mL; in series [5] (dog, in vivo, po, 30 mg/kg, analyte DPB, plasma, n=8) it was 11.6 µg/mL. Further, the time to peak (Tmax) in series [5] (setting [7]) was 3.13 h; in series [5] (dog, in vivo, po, 30 mg/kg, analyte DPB), 7.28 h. Besides, the bioavailability in series [5] (dog, in vivo, Oral, 30 mg/kg, analyte DPB, read-out: F (absolute bioavailability)) turned out to be 315%.
